Assay results reported in US20240246979A1, “cGAS INHIBITORS” (Eli Lilly and Company, priority 2022, published 2024).

Assays:
[1] = target: T1, cGAS (Homo sapiens, UniProt Q8N884); test: In vitro inhibition assay of cGAS activity (cGAMP production, RapidFire mass spectrometry); type: biochemical; design: Insert cDNA encoding full-length of human cGAS; His6; made in house; host or cells: E. coli BL21(DE3); details: 10 nM recombinant human cGAS, 60 nM 75-bp dsDNA, 50 μM ATP, 50 μM GTP, 3 hrs
Method: Expression and Purification of Recombinant cGAS Protein: Insert cDNA encoding full-length of human cGAS into a modified bacterial expression vector containing an in-frame His6-tag. Induce the E. coli strain BL21(DE3) harboring the plasmid with 1 mM IPTG (Isopropyl β-D-1-thiogalactopyranoside) at 18° C. overnight. Purify the His6-tagged cGAS protein over HISpur Ni-NTA resin in the presence of benzonase and RNase followed by Superdex 200 size exclusion chromatography with storage buffer (50 mM Tris-HCl pH 7.5, 300 mM NaCl, 1 mM DTT, 10% glycerol).
In vitro inhibition assay of cGAS activity: Add a 5 μL mixture containing 10 mM Tris-Cl pH 7.5, 50 mM NaCl, 5 mM MgCl2, 1 mM DTT, 0.01% Triton X-100, 60 nM 75-bp dsDNA, 50 μM ATP, 50 μM GTP, 10 nM of recombinant human cGAS, and serial dilutions of a test compound in DMSO to a 384-well plate and incubate at ambient temperature for 3 hrs. Quench the reaction by the addition of 100 μL of stop solution containing 0.1% formic acid and 0.1 μM internal standard (3′3′-difluoro cGAMP). Measure the amount of cGAMP produced by RapidFire 365 mass spectrometry and evaluate inhibitory effect of a compound by plotting percent specific inhibition of cGAMP production against log concentration of the test compound. Calculate IC50 values using a 4-parameter non-linear logistic equation (y=(S0+((Sinf−S0)/(1+((qAC50/x)^nHill))))).

[2] = target: T1, cGAS; test: Cellular assay to measure cGAS activity (IFNb AlphaLISA in THP1 cells stimulated by RDG-Adenovirus-GFP); type: cell-based; design: host or cells: THP1 cells differentiated with PMA and stimulated with RDG-Adenovirus-GFP; details: PMA-differentiated THP1 cells, RDG-Adenovirus-GFP at 1000 MOI; inhibition of IFNb production as marker for cGAS activity
Method: Cellular assay to measure cGAS activity: Use THP1 cell line from ATCC to determine inhibition of cGAS activity by test compounds in human cells. Plate cells on 96-well plates at 0.2×10^6/well and differentiate with phorbol myristate acetate (PMA) at 37° C./5% CO2. After 24 hours, replace PMA containing media with media lacking PMA and further incubate overnight. Stimulate cells were then by RDG-Adenovirus-GFP (Vector Biolabs #1768) at 1000 MOI for 4 hours prior to the addition of test compounds. After overnight incubation, transfer 10 μL of the media from each well to a new plate for IFNb analysis as a marker for cGAS activity. Measure quantification of IFNb with an IFNb AlphaLISA Detection kit (Perkin Elmer AL3133F) by mixing the acceptor beads with the cell supernatant followed by the addition of the biotinylated antibody and donor beads. Measure the relative fluorescence signal produced from the interaction of the donor and acceptor beads by a PHERAStar AlphaLISA protocol and evaluate the inhibitory effect of a compound by plotting specific inhibition of IFNb production against log concentration of the test compound. Calculate IC50 values using a 4-parameter non-linear logistic equation (y=(S0+((SInf−S0)/(1+((qAC50/x)^nHill))))).

T1 sequence (Q8N884 whole entry): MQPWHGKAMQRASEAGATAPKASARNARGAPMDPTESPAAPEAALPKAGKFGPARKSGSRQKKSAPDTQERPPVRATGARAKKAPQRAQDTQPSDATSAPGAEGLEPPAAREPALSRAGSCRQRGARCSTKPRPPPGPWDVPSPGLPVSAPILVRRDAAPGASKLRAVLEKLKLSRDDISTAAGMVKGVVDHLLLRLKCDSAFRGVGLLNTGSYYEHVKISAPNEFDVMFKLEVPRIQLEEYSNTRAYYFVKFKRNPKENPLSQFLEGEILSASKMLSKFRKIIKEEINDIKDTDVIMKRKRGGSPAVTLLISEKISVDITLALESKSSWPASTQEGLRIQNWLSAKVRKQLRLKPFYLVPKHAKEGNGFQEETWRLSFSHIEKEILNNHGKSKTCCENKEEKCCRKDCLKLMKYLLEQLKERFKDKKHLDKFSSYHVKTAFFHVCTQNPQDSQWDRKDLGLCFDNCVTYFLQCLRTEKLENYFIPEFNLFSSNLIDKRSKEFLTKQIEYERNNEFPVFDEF

Compound	IC50 [1] [nM]	IC50 [2] [nM]
CCOc1cc(Cl)c(Cl)c2[nH]c3c(c12)[C@H](C)C(=O)NCC3 (single isomer, unassigned) [Example 15A]	22.4	793
CCOc1cc(Cl)c(Cl)c2[nH]c3c(c12)[C@H](C)C(=O)NCC3 (single isomer, unassigned) [Example 15B]	1090	8140
C[C@@H]1C(=O)NCCc2[nH]c3c(Cl)c(Cl)cc(OCC#N)c3c21 (single isomer, unassigned) [Example 16A]	2.18	871
C[C@@H]1C(=O)NCCc2[nH]c3c(Cl)c(Cl)cc(OCC#N)c3c21 (single isomer, unassigned) [Example 16B]	998	1010
C[C@@H]1C(=O)NCCc2[nH]c3c(Cl)c(Cl)cc(OCC(N)=O)c3c21 (single isomer, unassigned) [Example 17A]	22.4	856
C[C@@H]1C(=O)NCCc2[nH]c3c(Cl)c(Cl)cc(OCC(N)=O)c3c21 (single isomer, unassigned) [Example 17B]	1540	4080
CC[C@H]1C(=O)NCCc2[nH]c3c(Cl)c(Cl)cc(OCC#N)c3c21 (single isomer, unassigned) [Example 35]	43.8	3690
CC[C@H]1C(=O)NCCc2[nH]c3c(Cl)c(Cl)cc(OCC#N)c3c21 (single isomer, unassigned) [Example 36]	3950	1200
C[C@H]1C(=O)NCCc2[nH]c3c(Cl)c(Cl)cc(-c4cnn(C)n4)c3c21 (single isomer, unassigned) [Example 37]	30.4	802
COCC(=O)Nc1cc(Cl)c(Cl)c2[nH]c3c(c12)[C@@H](C)C(=O)NCC3 (single isomer, unassigned) [Example 40]	27.3	787
COCC(=O)Nc1cc(Cl)c(Cl)c2[nH]c3c(c12)[C@@H](C)C(=O)NCC3 (single isomer, unassigned) [Example 41]	7170	> 10000
C[C@H](O)C(=O)Nc1cc(Cl)c(Cl)c2[nH]c3c(c12)[C@@H](C)C(=O)NCC3 (single isomer, unassigned) [Example 42]	6440	> 10000
C[C@H](O)C(=O)Nc1cc(Cl)c(Cl)c2[nH]c3c(c12)[C@@H](C)C(=O)NCC3 (single isomer, unassigned) [Example 43]	14.9	498
COCCNc1cc(Cl)c(Cl)c2[nH]c3c(c12)[C@@H](C)C(=O)NCC3 (single isomer, unassigned) [Example 47]	20.1	596
COCCNc1cc(Cl)c(Cl)c2[nH]c3c(c12)[C@@H](C)C(=O)NCC3 (single isomer, unassigned) [Example 48]	6490	> 10000
CC1C(=O)NCCc2[nH]c3c(Cl)c(Cl)cc(NCCO)c3c21 (single isomer, unassigned) [Example 50, 7,8-Dichloro-10-((2-hydroxyethyl)amino)-1-methyl-3,4,5,6-tetrahydroazepino[4,5-b]indol-2(1H)-one]	9.62	286
CC1C(=O)NCCc2c1c1c(NCCO)cc(Cl)c(Cl)c1n2C (single isomer, unassigned) [Example 51, 7,8-Dichloro-10-((2-hydroxyethyl)amino)-1,6-dimethyl-3,4,5,6-tetrahydroazepino[4,5-b]indol-2(1H)-one]	8.34	1340
C[C@H]1C(=O)NCCc2[nH]c3c(Cl)c(Cl)cc(NCCCO)c3c21 (single isomer, unassigned) [Example 53]	17.3	471

Compound	IC50 [1] [nM]	IC50 [2] [nM]
C[C@H]1C(=O)NCCc2[nH]c3c(Cl)c(Cl)cc(NCCCO)c3c21 (single isomer, unassigned) [Example 54]	4250	5660
C[C@@H](O)CNc1cc(Cl)c(Cl)c2[nH]c3c(c12)[C@@H](C)C(=O)NCC3 (single isomer, unassigned) [Example 55]	46.5	1920
C[C@@H](O)CNc1cc(Cl)c(Cl)c2[nH]c3c(c12)[C@@H](C)C(=O)NCC3 (single isomer, unassigned) [Example 56]	3560	6230
C[C@@H]1C(=O)NCCc2[nH]c3c(Cl)c(Cl)cc(N[C@H]4CCOC4)c3c21 (single isomer, unassigned) [Example 62]	44.5	1900
C[C@@H]1C(=O)NCCc2[nH]c3c(Cl)c(Cl)cc(N[C@H]4CCOC4)c3c21 (single isomer, unassigned) [Example 63]	1670	> 10000
C[C@H]1C(=O)NCCc2[nH]c3c(Cl)c(Cl)cc(N[C@@H]4CCOC4)c3c21 (single isomer, unassigned) [Example 64]	37.9	2420
C[C@H]1C(=O)NCCc2[nH]c3c(Cl)c(Cl)cc(N[C@@H]4CCOC4)c3c21 (single isomer, unassigned) [Example 65]	890	≥ 10000
C[C@H]1C(=O)NCCc2[nH]c3c(Cl)c(Cl)cc(NCC(F)(F)CO)c3c21 (single isomer, unassigned) [Example 68, (R)-7,8-Dichloro-10-((2,2-difluoro-3-hydroxypropyl)amino)-1-methyl-3,4,5,6-tetrahydroazepino[4,5-b]indol-2(1H)-one or (S)-7,8-Dichloro-10-((2,2-difluoro-3-hydroxypropyl)amino)-1-methyl-3,4,5,6-tetrahydroazepino[4,5-b]indol-2(1H)-one]	8.44	490
C[C@H]1C(=O)NCCc2[nH]c3c(Cl)c(Cl)cc(NCC(F)(F)CO)c3c21 (single isomer, unassigned) [Example 69, (R)-7,8-Dichloro-10-((2,2-difluoro-3-hydroxypropyl)amino)-1-methyl-3,4,5,6-tetrahydroazepino[4,5-b]indol-2(1H)-one or (S)-7,8-Dichloro-10-((2,2-difluoro-3-hydroxypropyl)amino)-1-methyl-3,4,5,6-tetrahydroazepino[4,5-b]indol-2(1H)-one]	630	> 10000
C[C@@H]1C(=O)NCCc2[nH]c3c(Cl)c(Cl)cc(OCC(F)(F)CO)c3c21 (single isomer, unassigned) [Example 73]	11.2	755
C[C@@H]1C(=O)NCCc2[nH]c3c(Cl)c(Cl)cc(OCC(F)(F)CO)c3c21 (single isomer, unassigned) [Example 74]	3440	> 10000
COCCOc1cc(Cl)c(Cl)c2[nH]c3c(c12)[C@H](C)C(=O)NCC3 (single isomer, unassigned) [Example 80]	8.12	280
COCCOc1cc(Cl)c(Cl)c2[nH]c3c(c12)[C@H](C)C(=O)NCC3 (single isomer, unassigned) [Example 81]	1200	7060
C[C@@H]1C(=O)NCCc2[nH]c3c(Cl)c(Cl)cc(OC[C@@H](C)O)c3c21 (single isomer, unassigned) [Example 82]	32.5	910
C[C@@H]1C(=O)NCCc2[nH]c3c(Cl)c(Cl)cc(OC[C@@H](C)O)c3c21 (single isomer, unassigned) [Example 83]	4740	> 10000
C[C@H](O)COc1cc(Cl)c(Cl)c2[nH]c3c(c12)[C@H](C)C(=O)NCC3 (single isomer, unassigned) [Example 84]	44.2	1430
C[C@H](O)COc1cc(Cl)c(Cl)c2[nH]c3c(c12)[C@H](C)C(=O)NCC3 (single isomer, unassigned) [Example 85]	2770	7260
C[C@H]1C(=O)NCCc2[nH]c3c(Cl)c(Cl)cc(CC#N)c3c21 (single isomer, unassigned) [Example 89]	20	1130
